Experiment [1] deals with Mythimna separata. Description: Insecticidal activity against third-instar larvae of Mythimna separata (Oriental armyworm) assessed as mortality after 72 hr by spray method. The format is functional.
Experiment [2] deals with Tetranychus cinnabarinus. Description: Acaricidal activity against adult Tetranychus cinnabarinus (carmine spider mite) assessed as mortality after 72 hr by immersion method. The experiment is classed as functional.
Experiment [3] relates to Aphis fabae. Description: Insecticidal activity against third-instar nymph of Aphis fabae (black bean aphids) assessed as mortality after 72 hr by spray method. As to conditions: for LC50: Aphis fabae, 72 h. The format is functional.
In experiment [4] the test system is Mythimna separata. Description: Insecticidal activity against third-instar larvae of Mythimna separata (Oriental armyworm) assessed as mortality at 100 mg/L after 72 hr by spray method. The format is functional, organism-based.
The test system of experiment [5] is Mythimna separata. Description: Insecticidal activity against third-instar larvae of Mythimna separata (Oriental armyworm) assessed as mortality at 25 mg/L after 72 hr by spray method. The format is functional, organism-based.
Experiment [6] deals with Tetranychus cinnabarinus. Description: Acaricidal activity against adult Tetranychus cinnabarinus (carmine spider mite) assessed as mortality at 6.25 mg/L after 72 hr by immersion method. The format is functional.
In experiment [7] the test system is Tetranychus cinnabarinus. Description: Ovolarvicidal activity against […] Tetranychus cinnabarinus (carmine spider mite) assessed as reduction in hatched eggs measured 6 days after hatching by immersion method. The format is functional. As to conditions: for LC50: Tetranychus cinnabarinus, 144 h.
Experiment [8] concerns Aphis fabae. Description: Insecticidal activity against third-instar nymph of Aphis fabae (black bean aphids) assessed as mortality at 4 mg/L after 72 hr by spray method. The experiment is classed as functional.
In experiment [9] the test system is Mythimna separata. Description: Insecticidal activity against third-instar larvae of Mythimna separata (Oriental armyworm) assessed as mortality at 1000 mg/L after 72 hr by spray method. The experiment is classed as functional.
The test system of experiment [10] is Tetranychus cinnabarinus. Description: Acaricidal activity against adult Tetranychus cinnabarinus (carmine spider mite) assessed as mortality at 600 mg/L after 72 hr by immersion method. The experiment is classed as functional.

As usually defined, the LC50 is the concentration lethal to half of the exposed cells or organisms. What is called mortality is the share of the test organisms that died.

≈ marks a conversion by molar mass, not a printed value. Calls of active or inactive are those of the source. The calls are words filed in the database; no cut-off is given here.

With `Cc1cc(C)c(C2=C(C(=O)C(c3ccc(Cl)cc3)C(C)C)C3(CCCC3)OC2=O)c(C)c1` (centres undefined), the LC50 in experiment [1] stood at 401 mg/L (≈ 889 µM); in [2], 101 mg/L (≈ 224 µM); in experiment [3], 101 mg/L (≈ 224 µM).
Turning to `Cc1cc(C)c(C2=C(C(=O)c3ccccc3Cl)C3(CCCC3)OC2=O)c(C)c1`, the LC50 in experiment [1] is 26 mg/L (≈ 65.8 µM); in experiment [2], over 600 mg/L; in experiment [3], 5 mg/L (≈ 12.7 µM). In experiment [4], the result was Active. The outcome in [5] was inactive.
As for `C/C=C/C(=O)C1=C(c2c(C)cc(C)cc2C)C(=O)OC12CCCC2`, the LC50 in [1] amounted to 101 mg/L (≈ 311 µM); in [2], 6.26 mg/L (≈ 19.3 µM); in experiment [3], 21 mg/L (≈ 64.7 µM).
On to `COc1ccc(C(=O)C2=C(c3c(C)cc(C)cc3C)C(=O)OC23CCCC3)cc1`, for which the results for the LC50 in experiment [1], in experiment [2] and in [3] were 26 mg/L (≈ 66.6 µM), 1 mg/L (≈ 2.56 µM) and 21 mg/L (≈ 53.8 µM), respectively. Moreover, the mortality at 6.25 µg/mL in [6] was found to be 55.2%.
With `CCC(=O)C1=C(c2c(C)cc(C)cc2C)C(=O)OC12CCCC2`, the results for the LC50 in experiment [1], in experiment [2] and in [3] were 101 mg/L (≈ 323 µM), 6.26 mg/L (≈ 20 µM) and 21 mg/L (≈ 67.2 µM), respectively.
Consider `CCCCCC(=O)C1=C(c2c(C)cc(C)cc2C)C(=O)OC12CCCC2`, for which the median lethal concentration (LC50) in experiment [1] came to 26 mg/L (≈ 73.3 µM); in [7], 11.8 mg/L (≈ 33.3 µM); in experiment [2] it was 6.26 mg/L (≈ 17.7 µM); in [3], 1 mg/L (≈ 2.82 µM). For the same molecule, the LC90 in experiment [7] stood at 56.08 mg/L (≈ 158 µM); in experiment [3], 21.77 mg/L (≈ 61.4 µM). Moreover, the mortality at 4 µg/mL in [8] turned out to be 95.6%. Besides, the mortality at 1000 µg/mL in experiment [9] was determined as 100%. The outcome in experiment [4] was Active. In addition, the result in experiment [5] was inactive.
For the molecule `COC1=C(c2c(C)cc(C)cc2C)C(=O)OC12CCCC2`, the LC50 in experiment [1] was over 1000 mg/L; in experiment [2], over 600 mg/L; in [3], over 500 mg/L.
In the same order, the values of `CCc1c(C)cc(OC2=C(c3c(C)cc(C)cc3C)C(=O)OC23CCCC3)cc1C` are over 1000 mg/L, over 600 mg/L and over 500 mg/L.
`CCOC1=C(c2c(C)cc(C)cc2C)C(=O)OC12CCCC2`: the LC50 in experiment [1] was over 1000 mg/L; in experiment [2], over 600 mg/L; in [3], over 500 mg/L.
The corresponding values for `CO/N=C(/C(=O)C1=C(c2c(C)cc(C)cc2C)C(=O)OC12CCCC2)c1ccccc1` are 26 mg/L (≈ 62.3 µM), 26 mg/L (≈ 62.3 µM) and 21 mg/L (≈ 50.3 µM).
The corresponding values for `Cc1ccc(C(=O)C2=C(c3c(C)cc(C)cc3C)C(=O)OC23CCCC3)cc1` are over 1000 mg/L, over 600 mg/L and over 500 mg/L.
The corresponding values for `Cc1cc(C)c(C2=C(C(=O)c3ccccc3C)C3(CCCC3)OC2=O)c(C)c1` are 26 mg/L (≈ 69.4 µM), 101 mg/L (≈ 270 µM) and 5 mg/L (≈ 13.4 µM).
For `Cc1cc(C)c(C2=C(C(=O)c3ccc(F)cc3)C3(CCCC3)OC2=O)c(C)c1`, the 50% lethal concentration (LC50) was 101 mg/L (≈ 267 µM) in [1], 101 mg/L (≈ 267 µM) in [2] and 21 mg/L (≈ 55.5 µM) in experiment [3].
With `CCCCCCC(=O)C1=C(c2c(C)cc(C)cc2C)C(=O)OC12CCCC2`, the LC50 in [1] turned out to be 101 mg/L (≈ 274 µM); in experiment [2] it was 26 mg/L (≈ 70.6 µM); in experiment [3], 5 mg/L (≈ 13.6 µM).
Take `CCC(C)(C)C(=O)OC1=C(c2ccc(Cl)cc2Cl)C(=O)OC12CCCCC2` [SPIRODICLOFEN]: in experiment [8], the mortality at 4 µg/mL is 0%.
As to `Cc1cc(C)c(C2=C(C(=O)CC(C)(C)C)C3(CCCC3)OC2=O)c(C)c1`, the LC50 in experiment [1] was 101 mg/L (≈ 285 µM); in experiment [2], 26 mg/L (≈ 73.3 µM); in experiment [3], 5 mg/L (≈ 14.1 µM).
`CCCCC(=O)C1=C(c2c(C)cc(C)cc2C)C(=O)OC12CCCC2`: the median lethal concentration (LC50) in experiment [1] was determined as 26 mg/L (≈ 76.4 µM); in experiment [2] it was 6.26 mg/L (≈ 18.4 µM); in experiment [3] it was 1 mg/L (≈ 2.94 µM). The mortality at 4 µg/mL in [8] was found to be 55.5%. The mortality at 1000 µg/mL in experiment [9] amounted to 100%.
Consider `C=CC(=O)C1=C(c2c(C)cc(C)cc2C)C(=O)OC12CCCC2`, for which the figures for the LC50 in experiment [1], in [2] and in experiment [3] were 26 mg/L (≈ 83.8 µM), 101 mg/L (≈ 325 µM) and 5 mg/L (≈ 16.1 µM), respectively.
Regarding `Cc1cc(C)c(C2=C(OC(=O)CC(C)(C)C)C3(CCCC3)OC2=O)c(C)c1` [SPIROMESIFEN], the 50% lethal concentration (LC50) in experiment [1] was determined as 101 mg/L (≈ 273 µM); in experiment [7] it was 4.32 mg/L (≈ 11.7 µM); in experiment [2], 6.26 mg/L (≈ 16.9 µM); in experiment [3], 5 mg/L (≈ 13.5 µM). The LC90 in experiment [7] turned out to be 31.07 mg/L (≈ 83.9 µM). Moreover, the mortality at 4 µg/mL in experiment [8] was determined as 10.9%.
With `Cc1cc(C)c(C2=C(C(=O)C3C(C=C(Cl)Cl)C3(C)C)C3(CCCC3)OC2=O)c(C)c1` (centres undefined), the LC50 is 401 mg/L (≈ 896 µM) in experiment [1], over 600 mg/L in experiment [2] and 100 mg/L (≈ 224 µM) in experiment [3].
For `Cc1cc(C)c(C2=C(C(=O)/C=C/c3ccccc3)C3(CCCC3)OC2=O)c(C)c1`, the LC50 was determined as 26 mg/L (≈ 67.3 µM) in experiment [1], 101 mg/L (≈ 261 µM) in [2] and 5 mg/L (≈ 12.9 µM) in experiment [3]. Moreover, in [4], the outcome was Active. Moreover, the outcome in experiment [5] was inactive.
Take `CCC(C)(C)C(=O)C1=C(c2c(C)cc(C)cc2C)C(=O)OC12CCCC2`: the LC50 worked out at 101 mg/L (≈ 285 µM) in experiment [1], 6.26 mg/L (≈ 17.7 µM) in experiment [2] and 21 mg/L (≈ 59.2 µM) in experiment [3].
Consider `CCCC(=O)C1=C(c2c(C)cc(C)cc2C)C(=O)OC12CCCC2`, for which the LC50 in experiment [1] was 26 mg/L (≈ 79.6 µM); in experiment [2] it was 6.26 mg/L (≈ 19.2 µM); in [3], 5 mg/L (≈ 15.3 µM). Further, the mortality at 600 µg/mL in experiment [10] was determined as 96.6%. Further, the mortality at 1000 µg/mL in experiment [9] amounted to 100%.
In the case of `CCOC(=O)OC1=C(c2cc(C)ccc2C)C(=O)N[C@]12CC[C@@H](OC)CC2` [SPIROTETRAMAT], the mortality at 4 µg/mL in experiment [8] came out at 37.9%. Further, in experiment [3], the LC90 is given as 13.56 mg/L (≈ 36.3 µM) and the 50% lethal concentration (LC50) came to 5.06 mg/L (≈ 13.5 µM).

The record behind these values is ChEMBL document CHEMBL3046710, “Synthesis and bioactivity evaluation of novel spiromesifen derivatives” (2012).
